Experimental findings from ChEMBL document CHEMBL1146018, “The design and synthesis of a tricyclic single-nitrogen scaffold that serves as a 5-HT2C receptor agonist” (Bioorg Med Chem Lett, 2006) are described below.

SMILES strings stand for the structures. Active and inactive are the calls of the source. No cut-off for these calls is given here. A value given as a limit tells only on which side of the number the result lay.

In data set [1] the target is T1, 5-hydroxytryptamine receptor 2C (Homo sapiens, UniProt P28335).
T1 sequence (P28335 whole entry): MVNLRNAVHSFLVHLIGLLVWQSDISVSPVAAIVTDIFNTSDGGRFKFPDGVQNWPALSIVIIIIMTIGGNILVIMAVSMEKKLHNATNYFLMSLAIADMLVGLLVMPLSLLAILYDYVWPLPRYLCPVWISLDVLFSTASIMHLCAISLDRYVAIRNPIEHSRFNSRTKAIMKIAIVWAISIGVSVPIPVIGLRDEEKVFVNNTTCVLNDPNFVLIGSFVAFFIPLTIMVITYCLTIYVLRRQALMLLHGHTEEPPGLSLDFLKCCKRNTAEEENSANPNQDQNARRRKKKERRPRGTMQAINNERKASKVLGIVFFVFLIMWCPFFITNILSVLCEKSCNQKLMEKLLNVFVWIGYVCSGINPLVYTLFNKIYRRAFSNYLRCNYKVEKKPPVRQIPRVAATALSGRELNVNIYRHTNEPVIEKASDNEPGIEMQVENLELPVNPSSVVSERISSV
Briefly: Binding affinity to 5HT2C.

The target in data set [2] is Serotonin receptor (2b and 2c) (Homo sapiens) (UniProt P41595+P28335). Description: Selectivity for 5HT2C over 5HT2B. The format is protein assay.
Data set [3] has as its target Serotonin 2 receptors; 5-HT2a & 5-HT2c (Homo sapiens) (UniProt P28223+P28335). Description: Selectivity for 5HT2C over 5HT2A. The format is protein assay.
Data set [4] deals with T1, 5-hydroxytryptamine receptor 2C. Description: […] of 5HT2C assessed as intracellular calcium concentration. The class given is functional, cell-based.
The nature of data set [5]: Oral bioavailability in dog at 10.6 mg/kg, po. The following applies: in vivo. The class given is ADME, organism-based, Canis lupus familiaris.
The nature of data set [6]: Half life in rat at 1.2 mg/kg, iv. The class given is ADME, organism-based. The following applies: in vivo. Also on record: dose 1.2 mg/kg, route intravenous.
Data set [7] can be described thus: Oral bioavailability in rat at 10.6 mg/kg, po. The class given is ADME, organism-based. The conditions noted are these: in vivo.
For data set [8], the system named is Rattus norvegicus. Description: Reduction of food intake in rat at 20 mg/kg, ip after 24 hrs. The class given is functional, organism-based. Also on record: dose 20 mg/kg.
Data set [9] can be described thus: Half life in dog at 1.0 mg/kg, iv. The format is ADME, organism-based, Canis lupus familiaris. More on the design: dose 1 mg/kg, route intravenous. The following applies: in vivo.
For data set [10], the system named is Rattus norvegicus. Description: Reduction of food intake in rat at 10 mg/kg, ip after 4 hrs. The format is functional, organism-based. Also on record: dose 10 mg/kg.
Data set [11] in a line: Clearance in dog at 1.0 mg/kg, iv. The format is ADME, organism-based, Canis lupus familiaris. Also on record: dose 1 mg/kg, route intravenous. The conditions noted are these: in vivo.
Data set [12] can be described thus: Ratio of drug level in brain against plasma measured as AUC cortex/AUC plasma at 1.2 mg/kg, iv. The format is ADME, organism-based. More on the design: dose 1.2 mg/kg, route intravenous. The following applies: rat, read-out: BPR.
For data set [13], the system named is Rattus norvegicus. Briefly: Reduction of food intake in ip dosed rat. The class given is functional, organism-based.
The nature of data set [14]: Clearance in rat at 1.2 mg/kg, iv. The format is ADME, organism-based. More on the design: dose 1.2 mg/kg, route intravenous. The following applies: in vivo.

Serotonin 2 receptors; 5-HT2a & 5-HT2c (Homo sapiens), sequence (P28223 whole entry, looked up, one chain of several): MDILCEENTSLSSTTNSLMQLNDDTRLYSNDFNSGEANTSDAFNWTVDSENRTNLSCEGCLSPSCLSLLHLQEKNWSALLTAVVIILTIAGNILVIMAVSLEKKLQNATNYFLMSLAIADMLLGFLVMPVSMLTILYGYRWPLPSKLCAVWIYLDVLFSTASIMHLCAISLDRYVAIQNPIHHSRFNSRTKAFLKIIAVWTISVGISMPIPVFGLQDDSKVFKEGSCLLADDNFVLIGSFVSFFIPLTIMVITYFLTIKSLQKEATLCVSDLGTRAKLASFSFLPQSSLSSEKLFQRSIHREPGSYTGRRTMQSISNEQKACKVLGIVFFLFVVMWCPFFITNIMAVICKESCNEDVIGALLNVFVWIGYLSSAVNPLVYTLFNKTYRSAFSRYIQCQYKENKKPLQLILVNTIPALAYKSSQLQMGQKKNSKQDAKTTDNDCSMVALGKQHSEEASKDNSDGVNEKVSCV

For the compound `C[C@H]1c2cc(Cl)c(O)cc2[C@H]2CNC[C@H]21`, the affinity in data set [1], expressed as Ki, was 27 nM. Moreover, the Selectivity ratio in data set [2] was found to be 63; in data set [3], 27.

`C[C@H]1c2cc(Cl)c(Cl)cc2[C@H]2CNC[C@H]21` showed a Ki in data set [1] of 155 nM. Further, the figures for the Selectivity ratio in [2] and in [3] were 32 and 8, respectively.

Take `Clc1ccc2c(c1)C[C@@H]1CNC[C@H]21`: the results for the Selectivity ratio in data set [2] and in [3] were 19 and 14, respectively. Besides, the EC50 in data set [4] was determined as 11 nM.

`Cc1cccc2c1C(C)[C@@H]1CNC[C@H]21` (mixture of isomers) registered a Ki in [1] of 3380 nM.

The compound `COc1cc2c(cc1Cl)C(C)[C@@H]1CNC[C@H]21` (mixture of isomers) had a Ki in data set [1] of 530 nM.

As to `C[C@@H]1c2cc(Cl)c(Cl)cc2[C@H]2CNC[C@@H]12`, in data set [1], the affinity corresponds to a Ki of 1140 nM. The Selectivity ratio was 3 in [2] and 2 in data set [3].

`CC1c2cc(Cl)c(Cl)cc2[C@H]2CNC[C@@H]12` (mixture of isomers) returned a Ki in data set [1] of 103 nM.

Take `Cc1ccc2c(c1)C(C)[C@@H]1CNC[C@H]21` (mixture of isomers): the Ki in data set [1] amounted to 1700 nM.

In data set [1], `Cc1cc2c(cc1Cl)C(C)[C@@H]1CNC[C@H]21` (mixture of isomers) came in with a Ki of 107 nM.

In the case of `Cc1cccc2c1[C@H]1CNC[C@H]1C2C` (mixture of isomers), the inhibition constant (Ki) in data set [1] was determined as 1850 nM.

With `COc1cc2c(cc1Cl)[C@H](C)[C@@H]1CNC[C@H]21`, the values for the bioavailability in data set [5] and in data set [7] were 80% and 40%, respectively. Moreover, the Ki in data set [1] is 14 nM. Besides, the half-life in [6] was 1.8 h; in data set [9], 3.5 h. Moreover, the outcome in the data set on Rattus norvegicus [8] and in the data set on Rattus norvegicus [10] was Active. In addition, the results for the clearance in data set [11] and in data set [14] were 39 mL/min/kg and 31 mL/min/kg, respectively. Also, in data set [12], the Kp is 15. The Selectivity ratio is 235 in [2] and 73 in [3]. Besides, the Activity result in the data set on Rattus norvegicus [13] is “Dose-dependent effect”. Besides, the EC50 in data set [4] came out at 6 nM.

For the compound `Cc1cc2c(cc1Cl)[C@H](C)[C@@H]1CNC[C@H]21`, the Ki in [1] came out at 155 nM. Moreover, the figures for the Selectivity ratio in [2] and in data set [3] were 32 and 8, respectively.

The compound `Cc1cc2c(cc1Br)[C@H]1CNC[C@H]1C2C` (mixture of isomers) yielded an inhibition constant (Ki) in data set [1] of 207 nM.

With `C[C@H]1c2cc(Cl)ccc2[C@H]2CNC[C@H]21`, affinity in data set [1] was put at a Ki of 911 nM. For the same compound, the Selectivity ratio in data set [2] came to 132; in data set [3], 56. The EC50 in data set [4] came out at 54 nM.

In data set [1], `COc1cc2c(cc1Br)[C@H](C)[C@@H]1CNC[C@H]21` gave an inhibitory constant (Ki) of 27 nM. Further, the Selectivity ratio amounted to 81 in data set [2] and 12 in data set [3].

In data set [1], `Cc1cc2c(cc1Br)C(C)[C@@H]1CNC[C@H]21` (mixture of isomers) gave an inhibitory constant (Ki) of 463 nM.

In the case of `Cc1cc2c(cc1Cl)[C@H]1CNC[C@H]1C2C` (mixture of isomers), the affinity in data set [1], expressed as Ki, was 465 nM.

As for `Cc1cc2c(cc1Cl)[C@H]1CNC[C@H]1[C@H]2C`, the Ki in [1] amounted to 134 nM. For the same compound, the Selectivity ratio was determined as 14 in data set [2] and 11 in data set [3].

`CC1c2ccc(F)cc2[C@H]2CNC[C@@H]12` (mixture of isomers) showed a Ki in [1] of 3010 nM.

In [1], `C[C@H]1c2c(ccc(Cl)c2Cl)[C@H]2CNC[C@H]21` registered an inhibition constant Ki of 5 nM. Besides, the Selectivity ratio in [2] was 73; in [3], 50.

Regarding `Cc1ccc2c(c1)[C@H]1CNC[C@H]1C2C` (mixture of isomers), affinity in data set [1] was put at a Ki of 3310 nM.

`CC1c2cc(F)ccc2[C@H]2CNC[C@@H]12` (mixture of isomers) displayed a Ki in [1] of more than 10000 nM.

`CCOc1cc2c(cc1Cl)[C@H](C)[C@@H]1CNC[C@H]21` came in with an inhibition constant Ki in data set [1] of 231 nM. Further, the Selectivity ratio in data set [2] worked out at 31; in data set [3] it was 9.
